Assay results taken from patent publication US11077115B2, “Rorgamma modulators and uses thereof” (Genfit, priority 2017, dated 2021).

Key:
[1] = target: T1, RORγt ligand-binding domain (RORγt-LBD) (Homo sapiens, UniProt P51449); test: Time-resolved FRET (TR-FRET) RORγt coactivator assay (RIP140 peptide displacement); type: biochemical; settings: ligand-dependent coactivator-RORγt binding
T1 construct: 20 nM recombinantly expressed RORγ-LBD fused to GST
T1 sequence (P51449 269-508 limits assumed): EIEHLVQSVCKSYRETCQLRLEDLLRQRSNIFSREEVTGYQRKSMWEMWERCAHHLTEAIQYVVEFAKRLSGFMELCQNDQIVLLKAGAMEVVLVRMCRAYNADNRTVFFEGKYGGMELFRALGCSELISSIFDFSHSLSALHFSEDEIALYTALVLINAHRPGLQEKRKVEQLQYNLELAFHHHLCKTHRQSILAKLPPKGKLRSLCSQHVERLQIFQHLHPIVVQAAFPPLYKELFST
Description: Time-resolved FRET (TR-FRET) RORγt coactivator assay was used to identify RORγ modulator compounds with ligand-dependent coactivator displacement. The assay uses a d2-labeled anti-GST antibody, synthetic N-terminally biotinylated peptide which is derived from nuclear receptor coactivator protein RIP140, and a RORγt ligand-binding domain (RORγt-LBD) that is tagged with glutathione-S-transferase (GST). The influence of compounds on the RORγ-peptide interaction relies on the binding dependent energy transfer from a donor to an acceptor fluorophor attached to the binding partner of interest. […] For reduction of background from compound fluorescence, TR-FRET method makes use of generic fluorophore labels and time resolved detection.
The assays were done in a final volume of 20 μl in a 384 well plate in a CHAPS buffer (2 mM CHAPS; 1 mM DTT, 2 mM EDTA; 0.1% BSA), containing 20 nM recombinantly expressed RORγ-LBD fused to GST, 30 nM N-terminally biotinylated peptide, 1 nM streptavidin-terbium conjugate and 20 nM d2 labeled-anti-GST. Test compounds were diluted using 10 mM stock solution. The range of the final compound concentrations used in this test was from 0.3 nM to 30 μM (logarithmic scale). DMSO content of the samples was kept at 1%. The assay was equilibrated for 2 hours in the dark at room temperature in 384 well plates (Falcon). The signal was detected by an Ultra384 reader (TECAN). […] Compounds that promote coactivator displacement induce a concentration-dependent decrease in time-resolved fluorescent signal. Data were collected and analyzed using GraphPad Prism software (GraphPad Software V5.02, San Diego Calif. USA). IC50 in μM and E max in % were reported for each compound.

human RORγt = target: T2, human RORγt (Homo sapiens, UniProt P51449); test: RORE Luciferase/RORγt transactivation assay (IL-17 promoter luciferase reporter in COS-7 cells); type: cell-based; design: V5-His (named only through the vector pcDNA3.1D/V5-His-TOPO); expressed in transfected cells; host or cells: COS-7 (monkey kidney); settings: RORγt activity inhibition, luciferase activity in transfected COS-7 cells, 20 h
T2 sequence (P51449 1-497 isoform P51449-2): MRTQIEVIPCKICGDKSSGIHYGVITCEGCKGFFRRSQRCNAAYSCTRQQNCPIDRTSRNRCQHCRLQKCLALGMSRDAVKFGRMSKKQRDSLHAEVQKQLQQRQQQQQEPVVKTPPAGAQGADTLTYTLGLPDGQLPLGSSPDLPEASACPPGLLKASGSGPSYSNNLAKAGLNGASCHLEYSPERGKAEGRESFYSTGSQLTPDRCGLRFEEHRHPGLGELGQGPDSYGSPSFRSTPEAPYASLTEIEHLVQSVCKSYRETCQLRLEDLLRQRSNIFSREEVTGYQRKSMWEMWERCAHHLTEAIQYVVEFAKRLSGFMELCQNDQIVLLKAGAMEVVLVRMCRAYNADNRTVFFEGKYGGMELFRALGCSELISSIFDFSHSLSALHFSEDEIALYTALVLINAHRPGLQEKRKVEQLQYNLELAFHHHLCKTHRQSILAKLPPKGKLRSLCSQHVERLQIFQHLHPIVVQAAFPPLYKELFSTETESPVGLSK
Protocol: It is well known that RORγ binds to a conserved non-coding sequence (CNS) enhancer element in the IL-17 promoter.
Culture medium was changed every 2 days.
The 4.3 Kb human IL-17 promoter containing the RORγ-specific CNS enhancer element was PCR amplified from human genomic DNA and cloned into a pGL3-TKLuc2Cp reporter plasmid.
The luciferase reporter plasmid and the RORγt overexpression plasmid were transfected into COS-7 cell line using 4 μL JetPEI™/μg of DNA. Briefly, 150 ng of DNA (ration 1/2 between RORE-Tk Luc2Cp and cDNA RORγt or the empty vector for the negative control) was served to transfect adherent COS-7 cells in a […] culture flask, in complete medium (see cos-7 cell line culture).
Cells were then detached (using trypsin) and washed by centrifugation at 300 g for 10 minutes. Cell pellet was resuspended in serum free/phenol red free DMEM and seeded in 384 well plates at a density of 10000 cells/well and then incubated for 4 h at 37° C.
Compounds were dissolved in 100% DMSO to obtain 10 mM stock solutions. For each compound, test concentrations were diluted in serum free/phenol red free DMEM using the Genesis Freedom 200™ (TECAN) and added to the cells to obtain a 0.3% DMSO final concentration (in a final volume of 40 μL per well).
The luciferase activity was then measured with 40 μL/well steady-Glo Luciferase assay system (Promega, Madison, Wis.) and after incubation at room temperature for 30 minutes. The luminescence was estimated using the Ultra384 reader (TECAN). Data were collected and analyzed using GraphPad Prism software (GraphPad Software V5.02, San Diego Calif. USA). IC50 in μM and E max in % were reported for each compound.

Row | IC50 [1] | IC50 (human RORγt) | Compound
1 | < 1000 nM | < 100 nM | Cc1ccc(C(NC(=O)Cc2ccc(N3CCS(=O)(=O)CC3)cn2)c2ccc(C)o2)c(N2CCCCC2)c1 (stereo not shown) [Cpd. 47, 2-[5-(1,1-dioxo-1-thiomorpholin-4-yl)pyridin-2-yl]-N-{[4-methyl-2-(piperidin-1-yl)phenyl](5-methylfuran-2-yl)methyl}acetamide]
2 | 100 to 1000 nM | 100 to 1000 nM | Cc1ccc(C(NC(=O)C2(c3ccc(N4CCS(=O)(=O)CC4)cc3)CCC2)c2ccc(C)o2)c(N2CCCCC2)c1 (stereo not shown) [Cpd. 55, 1-[4-(1,1-dioxo-1-thiomorpholin-4-yl)phenyl]-N-{[4-methyl-2-(piperidin-1-yl)phenyl](5-methylfuran-2-yl)methyl}cyclobutane-1-carboxamide]
3 | 100 to 1000 nM | 100 to 1000 nM | Cc1ccc(C(NC(=O)C(C)(C)c2ccc(N3CCS(=O)(=O)CC3)cc2)c2ccc(C)o2)c(N2CCCCC2)c1 (stereo not shown) [Cpd. 56, 2-[4-(1,1-dioxo-1-thiomorpholin-4-yl)phenyl]-2-methyl-N-{[4-methyl-2-(piperidin-1-yl)phenyl](5-methylfuran-2-yl)methyl}propanamide]
4 | < 1000 nM | 100 to 1000 nM | Cc1ccc(C(NC(=O)C2(c3cccc(N4CCS(=O)(=O)CC4)c3)CC2)c2ccc(C)o2)c(N2CCCCC2)c1 (stereo not shown) [Cpd. 58, 1-[3-(1,1-dioxo-1-thiomorpholin-4-yl)phenyl]-N-{[4-methyl-2-(piperidin-1-yl)phenyl](5-methylfuran-2-yl)methyl}cyclopropane-1-carboxamide]
5 | 1000 to 10000 nM | 100 to 1000 nM | Cc1ccc(C(NC(=O)C2(c3ccc(N4CCS(=O)(=O)CC4)cc3)CC2)c2ccc(C)o2)c(C)c1 (stereo not shown) [Cpd. 64, N-[(2,4-dimethylphenyl)(5-methylfuran-2-yl)methyl]-1-[4-(1,1-dioxo-1-thiomorpholin-4-yl)phenyl]cyclopropane-1-carboxamide]
6 | < 1000 nM | < 100 nM | Cc1ccc(C(NC(=O)Cc2ncc(N3CCS(=O)(=O)CC3)cn2)c2ccc(C)o2)c(N2CCCCC2)c1 (stereo not shown) [Cpd. 65, 2-[5-(1,1-dioxo-1-thiomorpholin-4-yl)pyrimidin-2-yl]-N-{[4-methyl-2-(piperidin-1-yl)phenyl](5-methylfuran-2-yl)methyl}acetamide]
7 | < 1000 nM | < 100 nM | Cc1ccc(C(NC(=O)C2(c3ccc(N4CCS(=O)(=O)CC4)cc3)CC2)c2ccc(Cl)o2)cc1 (stereo not shown) [Cpd. 67, N-[(5-chlorofuran-2-yl)(4-methylphenyl)methyl]-1-[4-(1,1-dioxo-1-thiomorpholin-4-yl)phenyl]cyclopropane-1-carboxamide]
8 | < 1000 nM | 100 to 1000 nM | Cc1ccc(C(NC(=O)C2(c3cccc(N4CCS(=O)(=O)CC4)c3)CC2)c2ccc(C)o2)c(C)c1 (stereo not shown) [Cpd. 68, N-[(2,4-dimethylphenyl)(5-methylfuran-2-yl)methyl]-1-[3-(1,1-dioxo-1-thiomorpholin-4-yl)phenyl]cyclopropane-1-carboxamide]

More lines, now with the values behind:

Row | Compound | IC50 [1] | IC50 (human RORγt)
9 | Cc1ccc(C(NC(=O)Cc2cnc(N3CCS(=O)(=O)CC3)nc2)c2ccc(C)o2)c(C)c1 (stereo not shown) [Cpd. 35, N-[(2,4-dimethylphenyl)(5-methylfuran-2-yl)methyl]-2-[2-(1,1-dioxo-1-thiomorpholin-4-yl)pyrimidin-5-yl]acetamide] | 100 to 1000 nM | 1000 to 10000 nM
10 | Cc1ccc(C(NC(=O)Cc2cnc(N3CCS(=O)(=O)CC3)nc2)c2ccc(C)o2)c(N2CC3CC3C2)c1 (stereo not shown) [Cpd. 36, N-[(2-{3-azabicyclo[3.1.0]hexan-3-yl}-4-methylphenyl)(5-methylfuran-2-yl)methyl]-2-[2-(1,1-dioxo-1-thiomorpholin-4-yl)pyrimidin-5-yl]acetamide] | < 1000 nM | 100 to 1000 nM
11 | Cc1ccc(C(NC(=O)C2(c3ccc(N4CCS(=O)(=O)CC4)c(Br)c3)CC2)c2ccc(C)o2)c(N2CCCCC2)c1 (stereo not shown) [Cpd. 37, 1-[3-bromo-4-(1,1-dioxo-1-thiomorpholin-4-yl)phenyl]-N-{[4-methyl-2-(piperidin-1-yl)phenyl](5-methylfuran-2-yl)methyl}cyclopropane-1-carboxamide] | 100 to 1000 nM | < 100 nM
12 | Cc1ccc(C(NC(=O)C(C)(C)c2ccc(N3CCS(=O)(=O)CC3)cc2)c2ccc(C)o2)c(C)c1 (stereo not shown) [Cpd. 40, N-[(2,4-dimethylphenyl)(5-methylfuran-2-yl)methyl]-2-[4-(1,1-dioxo-1-thiomorpholin-4-yl)phenyl]-2-methylpropanamide] | < 1000 nM | 100 to 1000 nM
13 | Cc1ccc(C(NC(=O)C2(c3ccc(N4CCS(=O)(=O)CC4)cc3)CCC2)c2ccc(C)o2)c(C)c1 (stereo not shown) [Cpd. 41, N-[(2,4-dimethylphenyl)(5-methylfuran-2-yl)methyl]-1-[4-(1,1-dioxo-1-thiomorpholin-4-yl)phenyl]cyclobutane-1-carboxamide] | < 1000 nM | 100 to 1000 nM
14 | Cc1ccc(C(NC(=O)Cc2cnc(N3CCS(=O)(=O)CC3)nc2C)c2ccc(C)o2)c(C)c1 (stereo not shown) [Cpd. 42, N-[(2,4-dimethylphenyl)(5-methylfuran-2-yl)methyl]-2-[2-(1,1-dioxo-1-thiomorpholin-4-yl)-4-methylpyrimidin-5-yl]acetamide] | 1000 to 10000 nM | 1000 to 10000 nM
15 | Cc1ccc(C(NC(=O)Cc2ccc(O)c(N3CCS(=O)(=O)CC3)c2)c2ccc(C)o2)c(C)c1 (stereo not shown) [Cpd. 43, N-[(2,4-dimethylphenyl)(5-methylfuran-2-yl)methyl]-2-[3-(1,1-dioxo-1-thiomorpholin-4-yl)-4-hydroxyphenyl]acetamide] | < 1000 nM | 1000 to 10000 nM
16 | COc1ccc(C(NC(=O)C2(c3ccc(N4CCS(=O)(=O)CC4)cc3)CC2)c2ccc(C)o2)c(C)c1 (stereo not shown) [Cpd. 44, 1-[4-(1,1-dioxo-1-thiomorpholin-4-yl)phenyl]-N-[(4-methoxy-2-methylphenyl)(5-methylfuran-2-yl)methyl]cyclopropane-1-carboxamide] | < 1000 nM | < 100 nM
17 | COc1ccc(C(NC(=O)Cc2cnc(N3CCS(=O)(=O)CC3)nc2)c2ccc(C)o2)c(N2CCCCCC2)c1 (stereo not shown) [Cpd. 45, N-{[2-(azepan-1-yl)-4-methoxyphenyl](5-methylfuran-2-yl)methyl}-2-[2-(1,1-dioxo-1-thiomorpholin-4-yl)pyrimidin-5-yl]acetamide] | < 1000 nM | 100 to 1000 nM
